Values of other authors as cited in patent US20100015174A1, “METHOD TO CONTROL DENGUE VIRUSES IN HUMANS BY PICOLINIC ACID AND DERIVATIVES THEREOF” (priority 2008, published 2010).

Assays:
[1] = tested on: human aortic endothelial cells; settings: cited from earlier work
[2] = tested on: J2 retrovirus; settings: GG2EE transformed macrophages; cited from earlier work

Compound	change of reactive oxygen species (ROS) [1]	change of vascular adhesion molecules (VCAM-I) [1]	increase of NAD(P)H levels [1]	J2 retrovirus expression [2]
O=C(O)c1cccnc1 [Niacin, Nicotinic acid]	> 50%	80%	54%	
IFN-gamma: type II (immune) interferon				not affected
